In ChEMBL document CHEMBL3507680, “University of Dundee, Gates Library screen for HepG2 cell viability” one finds cytotoxicity data, which are given here for 72 compounds.

The series can be described thus: Human HepG2 cell viability assay in 384 well format. The series is classed as toxicity, cell-based. Also noted: dose 125 nL, time 70.5 hour; concentration not given beside the values. Conditions: HepG2 cells, read-out: Inhibition.
For `Cc1ccc(C(=O)N2CCC3(CC2)CC(c2cnn(C)c2)CO3)cn1` (configuration not stated), the cytotoxicity at 70.5 h is -10.6%.

Turning to `Cc1ccc(-c2ncc(C(=O)NCCNC(=O)C3CC3)s2)c(C)c1`, the cytotoxicity at 70.5 h was -6.37%.

Regarding `Cc1nccc(CN2CC[C@H](Oc3cccc(F)c3)[C@@](C)(O)C2)n1`, the cytotoxicity at 70.5 h was -3.99%.

For `CC(C)N1CCC2(CCCNC2)C1=O` (configuration not stated), the cytotoxicity at 70.5 h is -14.6%.

As for `O=C(CCCc1ccc(Cl)cc1)N1CCN(C(=O)c2ccc[nH]2)CC1`, the cytotoxicity at 70.5 h came to 1.45%.

As to `CC(=O)NCC(=O)N1CCn2cc(CN(C)Cc3ccco3)nc2C1`, the cytotoxicity at 70.5 h was 2.22%.

Consider `Cc1cc(C)n(CCCC(=O)N2CCc3ncc(Cl)cc3C2)n1`, for which the cytotoxicity at 70.5 h came to 30.1%.

On to `O=C(Cc1ccc(F)cc1)N1CCn2c(Cn3cncn3)cnc2C1`, for which the cytotoxicity at 70.5 h was -1.65%.

On to `Cc1nc(N2CCN(C)CC2)ncc1C(=O)N1CC[C@](C)(O)[C@H](C)C1`, for which the cytotoxicity at 70.5 h was -7.36%.

As for `CC(C)(C)c1n[nH]c(C2CN(C(=O)Cn3ccccc3=O)CCO2)n1` (configuration not stated), the cytotoxicity at 70.5 h is -5.55%.

`Cc1cnc(N2CCC3(CC2)CC3C(=O)NCC2CC2)nc1` (configuration not stated): the cytotoxicity at 70.5 h is 11.9%.

For `Cn1c(=O)n(C)c2cc(C3SCC(=O)Nc4ccsc43)ccc21` (configuration not stated), the cytotoxicity at 70.5 h amounted to 38.6%.

For `Cc1noc(CCCC(=O)N2CCN(C)CC2c2ccccc2)n1` (configuration not stated), the cytotoxicity at 70.5 h is 29.2%.

For `COc1ccccc1-c1cc(C(F)(F)F)c2c(C)nn(CC(=O)O)c2n1`, the cytotoxicity at 70.5 h is 18.1%.

For `CCC(C)C(=O)NCc1ccc(-n2cncn2)nc1` (configuration not stated), the cytotoxicity at 70.5 h was -6.68%.

For the compound `COc1cc(C(=O)NCCc2cccc(C)c2)on1`, the cytotoxicity at 70.5 h was 2.66%.

On to `O=S(=O)(C1CC1)N1CCC2(COCc3cnc(NCC4CC4)nc32)C1` (configuration not stated), for which the cytotoxicity at 70.5 h was -6.1%.

Consider `O=C1C(CS(=O)(=O)Nc2ccccc2)=NC(=O)n2cccc21`, for which the cytotoxicity at 70.5 h was -7.6%.

Take `CCOc1ccc(S(=O)(=O)NCCCc2ccc(N(C)C)cc2)cc1C`: the cytotoxicity at 70.5 h was -1.63%.

For `Cc1cc2n(n1)CC(CNCc1cc(C)on1)CN2` (configuration not stated), the cytotoxicity at 70.5 h was -9.53%.

As for `COc1ccc(CCC(=O)NCCN2CCC(c3cccs3)CC2)cc1`, the cytotoxicity at 70.5 h was -1.5%.

Regarding `Clc1cccc(C(CNc2ncccn2)N2CCOCC2)c1` (configuration not stated), the cytotoxicity at 70.5 h is -5.68%.

Take `COc1cccc(CN2CCCC2c2cncc(Nc3nncs3)n2)c1` (configuration not stated): the cytotoxicity at 70.5 h was 12.9%.

Consider `Cc1cc(NC(=O)c2nc(N3CCCC3)ncc2Cl)ccc1Br`, for which the cytotoxicity at 70.5 h was -5.96%.

Consider `CN(Cc1cnccn1)CC1CCOc2ccccc2C1` (configuration not stated), for which the cytotoxicity at 70.5 h is -12.2%.

Regarding `c1ccc(CN2CCC(Nc3ncnc4c3CCNCC4)C2)cc1` (configuration not stated), the cytotoxicity at 70.5 h is -4.37%.

As to `c1ccc(OC2COC3(CCN(CC4CC4)CC3)C2)nc1` (configuration not stated), the cytotoxicity at 70.5 h was found to be 2.65%.

For the compound `Clc1cc(N2CCC(N3CCCC3)CC2)nc2[nH]ccc12`, the cytotoxicity at 70.5 h was -2.57%.

On to `CCc1nnc(CN2CCc3cnc(C)nc3C2)o1`, for which the cytotoxicity at 70.5 h is -3.58%.

As for `CN1CCc2[nH]cnc2C12CCN(Cc1ccc3nsnc3c1)CC2`, the cytotoxicity at 70.5 h came out at 0.284%.

Consider `CC(Cn1cccn1)NC(=O)NCCc1cccs1` (configuration not stated), for which the cytotoxicity at 70.5 h was -6.38%.

Regarding `O=C(CCC(F)(F)F)N1CCCC(CO)(CC2CC2)C1` (configuration not stated), the cytotoxicity at 70.5 h is -8.1%.

For the compound `CC(C)NC(=O)C(C)NC(=O)N1CCN(c2ccc(Cl)cc2)CC1` (configuration not stated), the cytotoxicity at 70.5 h was determined as 19%.

In the case of `CC(=O)c1cccc(OCCCC(=O)N(C)Cc2cccc(O)c2)c1`, the cytotoxicity at 70.5 h was -6.39%.

Take `Cn1ccnc1CC1CCCN(C(=O)Cc2ccccc2)C1` (configuration not stated): the cytotoxicity at 70.5 h is -1.68%.

On to `O=C(CCn1cc(Cl)cn1)Nc1ncccn1`, for which the cytotoxicity at 70.5 h is -4.36%.

`O=C1CO[C@H]2CN(S(=O)(=O)c3ccccc3)C[C@H]2N1Cc1ccccc1`: the cytotoxicity at 70.5 h was -9.3%.

As to `CCc1noc(C2CC(=O)N(CCN(C)C)C2)n1` (configuration not stated), the cytotoxicity at 70.5 h is -3.23%.

As to `CS(=O)(=O)NCc1cnc2n1CCN(Cc1ccoc1)CC2`, the cytotoxicity at 70.5 h is -9.11%.

Regarding `Cc1nccn1-c1ccc(N2CCC(NC(C)CC(C)C)CC2)cc1` (configuration not stated), the cytotoxicity at 70.5 h was 10.6%.

As for `Cc1nc(CN2CCC(CNC(=O)C3CCOC3)CC2)oc1C` (configuration not stated), the cytotoxicity at 70.5 h turned out to be 16.3%.

With `CCC(C)NC(=O)CCNC(=O)Nc1ccc(-n2cncn2)c(F)c1` (configuration not stated), the cytotoxicity at 70.5 h was -10.1%.

In the case of `Cc1cccc2c1nc1n2[C@@H](CNC(=O)c2ccccn2)COC1`, the cytotoxicity at 70.5 h was -1.91%.

Turning to `COCCO[C@H]1CCN(C(=O)c2ccsc2)[C@H]1Cc1cnn(C)c1`, the cytotoxicity at 70.5 h is -11.9%.

With `O=C(Cc1ccccc1F)N1CCN(Cc2noc(C3CC3)n2)CC1`, the cytotoxicity at 70.5 h stood at 10.8%.

Take `CC(=O)N1CCC(N2CC[C@H](c3nc4cc(C)ccc4o3)C2)CC1`: the cytotoxicity at 70.5 h is -1.07%.

Regarding `Cc1ccc(-c2ncc(CN3CCN(C(=O)N(C)C)CC3)s2)o1`, the cytotoxicity at 70.5 h was -7.74%.

For the compound `CN(C)CC1CN(c2ncnc3ccsc23)CCO1` (configuration not stated), the cytotoxicity at 70.5 h was determined as 8.47%.

As for `Cc1ccc(C)c2c1NC(=O)C2CC(=O)O` (configuration not stated), the cytotoxicity at 70.5 h is 2.65%.

For the compound `COc1c(C)cnc(CNC(=O)CCOCC(C)C)c1C`, the cytotoxicity at 70.5 h was -4.31%.

With `COCC(=O)N1CCC2(CC1)c1ccccc1[C@@H](N1CCSCC1)[C@@H]2O`, the cytotoxicity at 70.5 h was found to be 4.64%.

Consider `CC(=O)N1CCC2(CCN(CC3CCCCC3)C2)CC1`, for which the cytotoxicity at 70.5 h was 3.48%.

As to `COCC(=O)N1CCc2cccc(S(=O)(=O)N3CCOCC3)c2C1`, the cytotoxicity at 70.5 h was -6.37%.

In the case of `Cc1[nH]c2c(C)cccc2c1CC(=O)N(C)CCN(C)C`, the cytotoxicity at 70.5 h was -8.69%.

For `Cc1nccn1-c1cc(CNC(=O)COCC2CC2)ccn1`, the cytotoxicity at 70.5 h was -6.02%.

With `CC(NC(=O)NCC(F)(F)F)c1nncn1C` (configuration not stated), the cytotoxicity at 70.5 h came to 29.7%.

On to `Cc1ccc2nc(C3CCCN3Cc3csc(C)n3)[nH]c2c1` (configuration not stated), for which the cytotoxicity at 70.5 h was -6.25%.

As to `CC(C)n1ccnc1CN1CCCN(C(=O)c2nccnc2N)CC1`, the cytotoxicity at 70.5 h is -16.3%.

`COc1cccc(CCC(=O)Nc2cnc3c(c2)c(C)nn3C)c1OC`: the cytotoxicity at 70.5 h was -14.1%.

On to `CN(C)CCn1ccc2cc(NC(=O)NCc3ncnn3C)ccc21`, for which the cytotoxicity at 70.5 h was -3.79%.

Take `COC(=O)CCC(=O)N1CCC2(CN(Cc3cccc(Cl)c3)C2)C1`: the cytotoxicity at 70.5 h was determined as 6.9%.

As to `O=C(NCc1ccco1)[C@@H]1CCO[C@@H]2CCN(c3ncccn3)C[C@H]21`, the cytotoxicity at 70.5 h is -3.72%.

Regarding `CCCc1cc(=O)n(CC(=O)NC(C)C)c(-n2nc(C)cc2C)n1`, the cytotoxicity at 70.5 h is -4.73%.

Regarding `Cc1ccc(N2CCC3(CCN(C(=O)N(C)C)CC3)CC2)nn1`, the cytotoxicity at 70.5 h was 11.4%.

With `CCOC(=O)Cn1c(=O)nc2n1C(=O)N(c1ccccc1)C2`, the cytotoxicity at 70.5 h worked out at 8.85%.

In the case of `CS(=O)(=O)c1ccc(CN2CCCCC2c2cccc(F)c2)cc1` (configuration not stated), the cytotoxicity at 70.5 h is -9.66%.

Regarding `Cc1cc(-c2nnn(CCC(N)=O)n2)ccc1F`, the cytotoxicity at 70.5 h was -9.65%.

With `CCN(CC)c1ncnc2c(C)nn(CC)c12`, the cytotoxicity at 70.5 h was -0.883%.

Turning to `Cc1cc(C(=O)Nc2cnn(CC(F)(F)F)c2)nc(N2CCOCC2)n1`, the cytotoxicity at 70.5 h was -13.4%.

With `CN1CCC(N(CCc2ccccc2)C(=O)COCC2CCCO2)CC1` (configuration not stated), the cytotoxicity at 70.5 h is -0.746%.

Consider `Cc1ccc(C)c(-c2csc(N)c2C#N)c1`, for which the cytotoxicity at 70.5 h was -3.45%.

Turning to `CS(=O)(=O)N1C[C@@H]2COC[C@]2(C(=O)NCCc2cccs2)C1`, the cytotoxicity at 70.5 h was -7.21%.
